One block for each substance: values may come before it.
Columns and labels:
TBP1 = biological target: T1, TBP1 (Homo sapiens, UniProt P19438); experiment: Binding of TBP1 to peptides on beads, ELISA with soluble substrate (pNPP, O.D. at 405 nm)
T1 construct: soluble extracellular domain of TNF receptor type 1, p55; host or cells: CHO
T1 sequence (P19438 41-201 limits assumed): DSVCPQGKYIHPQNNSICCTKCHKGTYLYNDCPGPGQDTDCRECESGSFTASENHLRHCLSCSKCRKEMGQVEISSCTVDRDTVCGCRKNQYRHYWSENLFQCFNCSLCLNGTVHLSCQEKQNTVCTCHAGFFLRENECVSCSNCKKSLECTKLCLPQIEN

[1] = system: Immunoglobulins from other animal species and from humans; experiment: Immunostaining of library beads containing N-DSer-DLys-LVal to verify specificity, other immunoglobulins; assay type: binding
rabbit immunoglobulins = experiment: Immunostaining of library beads containing N-DSer-DLys-LVal to verify specificity; assay type: binding
Procedure: 7. First screening of the polystyrene peptide library with TBP1. One quarter (400 µl packed) of the total number of beads were blocked with 5% FBS in PBS (1 ml for 45 minutes), to avoid nonspecific binding, and incubated with TBP1 (1 ml at a concentration of 10µg/ml in FBS/PBS for 45 minutes) followed by polyclonal rabbit anti-TBP1 (1:500 in FBS/PBS, 1 ml for 1 hour) and alkaline phosphatase conjugated goat anti-rabbit Ig antibodies (1:2000 in FBS/PBS, 1 ml for 40 minutes). The signal was generated by BCIP/NBT substrate (12 ml in 9 cm petri dish; further details as in 5 above). More than 50 stained beads were selected and three of them were subjected to sequencing. […] The BCIP/NBT substrate that we used in order to stain the beads could not be destained by any treatment that we tried (organic solvents, urea, SDS, NaOH, boiling, sonication and combinations of all of the above), and we therefore decided to use another alkaline phosphatase substrate which could be readily destained. […]

[2] = system: Monoclonal antibody to human β-endorphin; experiment: Staining of beads with anti-endorphin McAb clone 3-E7 (alkaline phosphatase/BCIP); assay type: binding, mouse; details: antibody 200 ng/ml, BCIP 2 hours
Procedure: Staining of the beads was performed using the following steps (all incubation steps were performed with continuous mixing of the beads): • a. Washes of the beads with wash buffer. • b. Incubation of the beads with blocking buffer for 45 minutes to block non-specific interactions. • c. Incubation of the beads with the monoclonal antibody to human β-endorphin diluted to 200 ng/ml in blocking buffer for 40 minutes. • d. Six washes with wash buffer. • e. Incubation of the beads with the polyclonal rabbit antibodies against mouse IgG conjugated with alkaline phosphatase, diluted 1:1000 in blocking buffer for 40 minutes. • f. Six washes with wash buffer and one wash with Tris (25mM), NaC1 (125 mM), Tween (0.1%). • g. Incubation of the beads with BCIP diluted to 500 ug/ml in 0.1M Tris pH 9.0, for 2 hours. • h. Two washes with H2O, transfer of the beads to petri dishes and observation for blue stained beads (using a stereomicroscope).

OD (TBP1; relative to background, peptide on around 100,000 beads, soluble substrate): ten times higher than background
OD in presence of the TBP1 (TBP1; relative to the antibodies only): four times higher
response with antibodies alone (TBP1; without TBP1): lack of response
Substance: N-DAla-DGlu-LMet

Substance: N-DSer-DLys-LVal
recognition of immunoglobulins from other animal species and from humans [1]: not recognized
recognition of rabbit immunoglobulins (rabbit immunoglobulins; from both rabbit anti-TBP1 antiserum and normal rabbit serum): specifically recognized
Immunostaining performed with and without TBP1 (rabbit immunoglobulins; surface staining): specificity to the antibodies

Number of Blue-stained Beads [2]: none of the beads
Substance: n-His-Pro-Tyr-Pro-Pro (HPYPP; on TentaGel beads; printed: His-Pro-Tyr-Pro-Pro) [Model HPYPP]

Substance: n-Tyr-Gly-Gly-Phe-Leu [Model YGGFL]
Number of Blue-stained Beads [2]: most of the beads

From patent EP0639584B1, “Preparation and screening of highly diverse peptide libraries for binding activity” (INTERPHARM LABORATORIES LTD., priority 1993, dated 1995)
